From ChEMBL document CHEMBL5113525, “Discovery of the Novel 1H-Pyrrolo[2,3-b]pyridine Derivative as a Potent Type II CDK8 Inhibitor against Colorectal Cancer” (J Med Chem, 2022)
Active and inactive are the calls of the source. The rule behind the calls is not given here.

Columns and labels:
[1] = target: Cyclin-dependent kinase 8 (Mus musculus) (UniProt Q8R3L8); test: Inhibition of CDK8 in mouse BMDC cells assessed as reduction in IFNgamma-induced STAT1 phosphorylation at S727 residue pretreated with IFNgamma for 2 hrs followed by compound treatment for 24 hrs by Western blot assay; type: cell-based
[2] = Half life in Sprague-Dawley rat at 10 mg/kg, po measured upto 12 hrs by LC-MS/MS analysis; type: ADME, organism-based; conditions: in vivo
[3] = Half life in Sprague-Dawley rat at 5 mg/kg, iv measured upto 12 hrs by LC-MS/MS analysis; type: ADME, organism-based; conditions: in vivo
[4] = Tmax in Sprague-Dawley rat at 10 mg/kg, po measured upto 12 hrs by LC-MS/MS analysis; type: ADME, organism-based; conditions: in vivo
[5] = MRT in Sprague-Dawley rat at 10 mg/kg, po measured upto 12 hrs by LC-MS/MS analysis; type: ADME, organism-based; conditions: in vivo
[6] = MRT in Sprague-Dawley rat at 5 mg/kg, iv measured upto 12 hrs by LC-MS/MS analysis; type: ADME, organism-based; conditions: in vivo
[7] = Cmax in Sprague-Dawley rat at 10 mg/kg, po measured upto 12 hrs by LC-MS/MS analysis; type: ADME, organism-based; design: time < 12 hrs, dose 10 mg/kg, route po; conditions: in vivo
[8] = Cmax in Sprague-Dawley rat at 5 mg/kg, iv measured upto 12 hrs by LC-MS/MS analysis; type: ADME, organism-based; design: dose 5 mg/kg, time < 12 hrs, route iv; conditions: in vivo
[9] = Clearance in Sprague-Dawley rat at 10 mg/kg, po measured upto 12 hrs by LC-MS/MS analysis; type: ADME, organism-based; conditions: in vivo
[10] = Clearance in Sprague-Dawley rat at 5 mg/kg, iv measured upto 12 hrs by LC-MS/MS analysis; type: ADME, organism-based; conditions: in vivo
[11] = target: Cyclin-dependent kinase 5/CDK5 activator 1 (Homo sapiens) (UniProt Q00535+Q15078); test: Inhibition of human CDK5/p35 at 1 uM relative to control; type: protein-complex assay
[12] = target: Aurora kinase B (Homo sapiens) (UniProt Q96GD4); test: Inhibition of human Aurora B at 1 uM relative to control
[13] = target: Tyrosine-protein kinase receptor UFO (Homo sapiens) (UniProt P30530); test: Inhibition of human AXL at 1 uM relative to control
[14] = target: Dual specificity protein kinase CLK3 (Homo sapiens) (UniProt P49761); test: Inhibition of human CLK3 at 1 uM relative to control
[15] = target: Dual specificity protein kinase CLK4 (Homo sapiens) (UniProt Q9HAZ1); test: Inhibition of human CLK4 at 1 uM relative to control
[16] = target: Epithelial discoidin domain-containing receptor 1 (Homo sapiens) (UniProt Q08345); test: Inhibition of human DDR1 at 1 uM relative to control
[17] = target: Discoidin domain-containing receptor 2 (Homo sapiens) (UniProt Q16832); test: Inhibition of human DDR2 at 1 uM relative to control
[18] = target: Epidermal growth factor receptor (Homo sapiens) (UniProt P00533); test: Inhibition of human EGFR at 1 uM relative to control
[19] = target: Fibroblast growth factor receptor 1 (Homo sapiens) (UniProt P11362); test: Inhibition of human FGFR1 at 1 uM relative to control
[20] = target: Fibroblast growth factor receptor 2 (Homo sapiens) (UniProt P21802); test: Inhibition of human FGFR2 at 1 uM relative to control
[21] = target: Fibroblast growth factor receptor 3 (Homo sapiens) (UniProt P22607); test: Inhibition of human FGFR3 at 1 uM relative to control
[22] = target: Fibroblast growth factor receptor 4 (Homo sapiens) (UniProt P22455); test: Inhibition of human FGFR4 at 1 uM relative to control
[23] = target: Vascular endothelial growth factor receptor 1 (Homo sapiens) (UniProt P17948); test: Inhibition of human FLT1 at 1 uM relative to control
[24] = target: Glycogen synthase kinase-3 alpha (Homo sapiens) (UniProt P49840); test: Inhibition of human GSK3A at 1 uM relative to control
[25] = target: Glycogen synthase kinase-3 beta (Homo sapiens) (UniProt P49841); test: Inhibition of human GSK3B at 1 uM relative to control
[26] = target: Tyrosine-protein kinase JAK2 (Homo sapiens) (UniProt O60674); test: Inhibition of human JAK2 at 1 uM relative to control
[27] = target: Mitogen-activated protein kinase 8 (Homo sapiens) (UniProt P45983); test: Inhibition of human JNK1-alpha-1 at 1 uM relative to control
[28] = target: Mitogen-activated protein kinase 8 (Homo sapiens) (UniProt P45983); test: Inhibition of human JNK1-alpha-2 at 1 uM relative to control
[29] = target: Mitogen-activated protein kinase 10 (Homo sapiens) (UniProt P53779); test: Inhibition of human JNK3 at 1 uM relative to control
[30] = target: Tyrosine-protein kinase Lck (Homo sapiens) (UniProt P06239); test: Inhibition of human LCK at 1 uM relative to control
[31] = target: LIM domain kinase 1 (Homo sapiens) (UniProt P53667); test: Inhibition of human LIMK1 at 1 uM relative to control
[32] = target: Tyrosine-protein kinase Lyn (Homo sapiens) (UniProt P07948); test: Inhibition of human LYN at 1 uM relative to control
[33] = target: Hepatocyte growth factor receptor (Homo sapiens) (UniProt P08581); test: Inhibition of human MET at 1 uM relative to control
[34] = target: Mitogen-activated protein kinase kinase kinase 11 (Homo sapiens) (UniProt Q16584); test: Inhibition of human MLK3 at 1 uM relative to control
[35] = target: Mitogen-activated protein kinase kinase kinase 21 (Homo sapiens) (UniProt Q5TCX8); test: Inhibition of human MLK4 at 1 uM relative to control
[36] = target: Serine/threonine-protein kinase mTOR (Homo sapiens) (UniProt P42345); test: Inhibition of human MTOR at 1 uM relative to control
[37] = target: Serine/threonine-protein kinase NLK (Homo sapiens) (UniProt Q9UBE8); test: Inhibition of human NLK at 1 uM relative to control
[38] = target: Serine/threonine-protein kinase PAK 1 (Homo sapiens) (UniProt Q13153); test: Inhibition of human PAK1 at 1 uM relative to control
[39] = target: Serine/threonine-protein kinase pim-1 (Homo sapiens) (UniProt P11309); test: Inhibition of human PIM1 at 1 uM relative to control
[40] = target: Serine/threonine-protein kinase pim-2 (Homo sapiens) (UniProt Q9P1W9); test: Inhibition of human PIM2 at 1 uM relative to control
[41] = target: Serine/threonine-protein kinase pim-3 (Homo sapiens) (UniProt Q86V86); test: Inhibition of human PIM3 at 1 uM relative to control
[42] = target: High affinity nerve growth factor receptor (Homo sapiens) (UniProt P04629); test: Inhibition of human TRKA at 1 uM relative to control
[43] = target: BDNF/NT-3 growth factors receptor (Homo sapiens) (UniProt Q16620); test: Inhibition of human TRKB at 1 uM relative to control
[44] = target: Phosphatidylinositol 4-phosphate 3-kinase C2 domain-containing subunit alpha (Homo sapiens) (UniProt O00443); test: Inhibition of human PI3K-C2-alpha at 1 uM relative to control
Sequence of Phosphatidylinositol 4-phosphate 3-kinase C2 domain-containing subunit alpha (Homo sapiens) (O00443 whole entry, the tested form may be a part): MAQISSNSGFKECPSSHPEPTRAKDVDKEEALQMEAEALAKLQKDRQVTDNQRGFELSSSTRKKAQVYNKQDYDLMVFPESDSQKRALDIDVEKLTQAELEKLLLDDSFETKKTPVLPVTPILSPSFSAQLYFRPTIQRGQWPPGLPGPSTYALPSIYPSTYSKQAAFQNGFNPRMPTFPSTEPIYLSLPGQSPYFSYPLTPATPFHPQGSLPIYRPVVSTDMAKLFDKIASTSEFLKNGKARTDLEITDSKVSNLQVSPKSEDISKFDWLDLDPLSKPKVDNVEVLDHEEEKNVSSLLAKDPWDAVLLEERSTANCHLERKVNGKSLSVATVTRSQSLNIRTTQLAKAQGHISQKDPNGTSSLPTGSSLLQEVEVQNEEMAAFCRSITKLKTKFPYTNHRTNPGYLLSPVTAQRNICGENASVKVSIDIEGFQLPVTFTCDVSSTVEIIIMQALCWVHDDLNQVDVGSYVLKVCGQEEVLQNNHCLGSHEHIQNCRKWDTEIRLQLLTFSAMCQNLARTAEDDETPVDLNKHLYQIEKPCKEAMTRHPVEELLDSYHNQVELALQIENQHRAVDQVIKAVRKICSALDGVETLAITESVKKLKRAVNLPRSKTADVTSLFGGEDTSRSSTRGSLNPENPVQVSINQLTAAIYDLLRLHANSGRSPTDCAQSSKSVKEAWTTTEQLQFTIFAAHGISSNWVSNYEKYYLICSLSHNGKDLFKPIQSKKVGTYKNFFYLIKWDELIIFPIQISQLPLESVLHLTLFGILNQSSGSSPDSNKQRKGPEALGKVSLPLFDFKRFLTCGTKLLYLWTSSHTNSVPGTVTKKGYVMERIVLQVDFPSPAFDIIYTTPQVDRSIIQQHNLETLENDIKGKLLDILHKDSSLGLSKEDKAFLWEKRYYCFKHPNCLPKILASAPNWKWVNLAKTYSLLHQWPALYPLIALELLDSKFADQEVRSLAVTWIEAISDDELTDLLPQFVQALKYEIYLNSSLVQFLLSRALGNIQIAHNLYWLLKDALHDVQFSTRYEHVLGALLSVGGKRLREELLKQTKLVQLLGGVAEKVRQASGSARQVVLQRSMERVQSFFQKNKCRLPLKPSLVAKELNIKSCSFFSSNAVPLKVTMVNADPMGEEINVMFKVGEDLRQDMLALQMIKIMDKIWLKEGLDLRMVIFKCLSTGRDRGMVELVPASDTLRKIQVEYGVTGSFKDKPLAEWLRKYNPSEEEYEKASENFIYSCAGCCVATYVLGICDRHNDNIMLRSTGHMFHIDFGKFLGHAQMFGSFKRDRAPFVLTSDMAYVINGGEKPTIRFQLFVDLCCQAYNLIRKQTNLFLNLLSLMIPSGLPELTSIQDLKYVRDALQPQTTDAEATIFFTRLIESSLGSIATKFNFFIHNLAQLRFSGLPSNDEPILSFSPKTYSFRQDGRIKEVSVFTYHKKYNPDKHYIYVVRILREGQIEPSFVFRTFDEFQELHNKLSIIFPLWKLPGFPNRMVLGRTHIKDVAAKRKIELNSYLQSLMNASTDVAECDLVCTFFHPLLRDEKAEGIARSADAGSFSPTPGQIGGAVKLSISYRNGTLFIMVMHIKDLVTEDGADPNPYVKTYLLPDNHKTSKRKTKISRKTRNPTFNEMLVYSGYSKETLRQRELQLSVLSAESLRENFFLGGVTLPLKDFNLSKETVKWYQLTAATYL

Sequence of Mitogen-activated protein kinase 8 (Homo sapiens) (P45983 whole entry): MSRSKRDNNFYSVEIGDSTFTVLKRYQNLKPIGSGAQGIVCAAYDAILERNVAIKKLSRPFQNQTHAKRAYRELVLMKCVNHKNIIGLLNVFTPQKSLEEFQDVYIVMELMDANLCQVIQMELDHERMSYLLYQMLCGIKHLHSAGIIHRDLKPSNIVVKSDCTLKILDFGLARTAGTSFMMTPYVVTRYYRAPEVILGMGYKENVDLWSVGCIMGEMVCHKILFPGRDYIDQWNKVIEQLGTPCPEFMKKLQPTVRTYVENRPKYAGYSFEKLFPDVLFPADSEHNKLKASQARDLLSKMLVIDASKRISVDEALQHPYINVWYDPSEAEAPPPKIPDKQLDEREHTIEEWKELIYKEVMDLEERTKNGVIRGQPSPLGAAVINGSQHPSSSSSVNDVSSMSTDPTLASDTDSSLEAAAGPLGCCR
Sequence of Aurora kinase B (Homo sapiens) (Q96GD4 whole entry): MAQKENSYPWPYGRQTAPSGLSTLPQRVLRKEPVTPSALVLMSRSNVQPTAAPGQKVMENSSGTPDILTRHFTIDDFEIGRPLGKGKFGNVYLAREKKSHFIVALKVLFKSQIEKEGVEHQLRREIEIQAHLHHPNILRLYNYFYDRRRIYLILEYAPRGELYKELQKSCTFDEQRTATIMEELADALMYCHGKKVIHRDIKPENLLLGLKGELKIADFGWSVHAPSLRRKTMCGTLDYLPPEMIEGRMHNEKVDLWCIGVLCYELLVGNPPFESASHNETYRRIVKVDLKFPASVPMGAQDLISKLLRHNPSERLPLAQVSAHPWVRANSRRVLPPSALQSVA
Sequence of Fibroblast growth factor receptor 4 (Homo sapiens) (P22455 22-802 limits assumed): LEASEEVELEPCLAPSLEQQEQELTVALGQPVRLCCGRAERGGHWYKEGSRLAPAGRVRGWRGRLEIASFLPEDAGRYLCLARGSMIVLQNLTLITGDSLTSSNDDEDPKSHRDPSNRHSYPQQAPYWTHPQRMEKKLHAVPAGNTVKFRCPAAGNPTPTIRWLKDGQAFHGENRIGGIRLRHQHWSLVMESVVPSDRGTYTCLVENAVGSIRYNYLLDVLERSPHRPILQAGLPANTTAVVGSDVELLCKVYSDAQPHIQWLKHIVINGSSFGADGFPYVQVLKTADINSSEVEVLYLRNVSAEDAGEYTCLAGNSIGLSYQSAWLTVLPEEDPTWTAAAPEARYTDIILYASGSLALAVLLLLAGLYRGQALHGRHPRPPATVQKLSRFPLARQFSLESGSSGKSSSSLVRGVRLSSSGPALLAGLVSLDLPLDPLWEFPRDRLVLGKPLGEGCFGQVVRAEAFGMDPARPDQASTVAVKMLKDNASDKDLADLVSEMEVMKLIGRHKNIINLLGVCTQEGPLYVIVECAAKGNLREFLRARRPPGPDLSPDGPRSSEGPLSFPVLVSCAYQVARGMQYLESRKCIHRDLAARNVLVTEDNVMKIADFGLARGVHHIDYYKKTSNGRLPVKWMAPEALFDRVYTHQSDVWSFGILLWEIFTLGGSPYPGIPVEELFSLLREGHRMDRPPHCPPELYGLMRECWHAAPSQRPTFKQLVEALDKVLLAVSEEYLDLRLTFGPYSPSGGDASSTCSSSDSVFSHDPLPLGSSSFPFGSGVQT
Sequence of Dual specificity protein kinase CLK4 (Homo sapiens) (Q9HAZ1 whole entry, looked up, the tested form may be a part): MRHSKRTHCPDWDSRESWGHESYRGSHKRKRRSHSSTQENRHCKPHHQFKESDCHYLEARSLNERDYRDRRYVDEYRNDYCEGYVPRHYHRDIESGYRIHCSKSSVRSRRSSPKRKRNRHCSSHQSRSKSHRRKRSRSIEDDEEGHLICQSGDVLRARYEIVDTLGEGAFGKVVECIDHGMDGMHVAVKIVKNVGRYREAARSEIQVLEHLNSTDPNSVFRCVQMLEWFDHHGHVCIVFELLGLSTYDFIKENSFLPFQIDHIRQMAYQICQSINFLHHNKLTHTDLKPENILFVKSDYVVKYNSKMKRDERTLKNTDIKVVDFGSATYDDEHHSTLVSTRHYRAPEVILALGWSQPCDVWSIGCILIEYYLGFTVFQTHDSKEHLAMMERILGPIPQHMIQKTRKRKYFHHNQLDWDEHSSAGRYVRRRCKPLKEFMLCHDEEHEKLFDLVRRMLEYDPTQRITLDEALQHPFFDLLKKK
Sequence of Tyrosine-protein kinase Lyn (Homo sapiens) (P07948 2-512 limits assumed): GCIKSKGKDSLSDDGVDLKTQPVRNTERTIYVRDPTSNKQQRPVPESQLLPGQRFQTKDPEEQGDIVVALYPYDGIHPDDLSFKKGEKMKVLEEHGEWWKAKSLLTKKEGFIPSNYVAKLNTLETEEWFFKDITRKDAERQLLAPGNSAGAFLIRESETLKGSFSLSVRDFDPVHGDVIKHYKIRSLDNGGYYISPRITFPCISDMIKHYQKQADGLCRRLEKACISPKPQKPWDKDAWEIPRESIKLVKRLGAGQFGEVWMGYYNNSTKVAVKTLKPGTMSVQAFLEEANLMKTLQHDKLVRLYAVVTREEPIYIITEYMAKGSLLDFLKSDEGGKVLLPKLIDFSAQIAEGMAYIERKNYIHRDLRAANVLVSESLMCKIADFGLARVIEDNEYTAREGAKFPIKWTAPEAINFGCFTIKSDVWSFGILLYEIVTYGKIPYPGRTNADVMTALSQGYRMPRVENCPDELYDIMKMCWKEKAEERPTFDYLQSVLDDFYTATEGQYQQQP
Sequence of Fibroblast growth factor receptor 3 (Homo sapiens) (P22607 23-806 limits assumed): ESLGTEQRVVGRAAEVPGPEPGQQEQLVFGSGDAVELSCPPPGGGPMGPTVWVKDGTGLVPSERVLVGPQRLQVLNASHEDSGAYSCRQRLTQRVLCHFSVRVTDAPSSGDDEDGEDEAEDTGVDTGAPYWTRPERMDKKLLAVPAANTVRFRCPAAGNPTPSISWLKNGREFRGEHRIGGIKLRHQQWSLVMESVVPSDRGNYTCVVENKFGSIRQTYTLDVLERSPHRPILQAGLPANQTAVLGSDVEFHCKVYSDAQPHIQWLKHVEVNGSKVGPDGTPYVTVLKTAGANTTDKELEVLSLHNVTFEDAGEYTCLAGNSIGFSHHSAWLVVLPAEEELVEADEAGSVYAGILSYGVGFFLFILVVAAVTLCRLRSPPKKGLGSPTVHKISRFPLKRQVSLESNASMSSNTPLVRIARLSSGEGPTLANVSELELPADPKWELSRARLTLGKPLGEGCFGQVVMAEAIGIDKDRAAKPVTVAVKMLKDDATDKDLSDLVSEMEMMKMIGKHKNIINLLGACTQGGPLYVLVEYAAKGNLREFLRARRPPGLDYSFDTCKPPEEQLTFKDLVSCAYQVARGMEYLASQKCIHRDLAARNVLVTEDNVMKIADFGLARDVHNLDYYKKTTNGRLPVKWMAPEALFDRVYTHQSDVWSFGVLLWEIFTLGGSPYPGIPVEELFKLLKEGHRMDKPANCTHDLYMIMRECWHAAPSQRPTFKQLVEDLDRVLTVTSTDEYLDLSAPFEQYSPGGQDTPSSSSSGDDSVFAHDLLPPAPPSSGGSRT

Cc1ccc(NC(=O)CCc2cccc(-c3cnc4[nH]ccc4c3)c2)cc1C(F)(F)F
inhibition [1]: Active
half-life [2]: 1.21 h
half-life [3]: 1.63 h
Tmax [4]: 0.75 h
MRT [5]: 2.02 h
MRT [6]: 1.76 h
Cmax [7]: 498 ng/mL
Cmax [8]: 706 ng/mL
CL/F [9]: 154 mL/min/kg
CL [10]: 188.7 mL/min/kg
inhibition [11]: 0%
inhibition [12]: 43%
inhibition [13]: 38%
inhibition [14]: 2%
inhibition [15]: 6%
inhibition [16]: 36%
inhibition [17]: 23%
inhibition [18]: 0%
inhibition [19]: 0%
inhibition [20]: 0%
inhibition [21]: 0%
inhibition [22]: 0%
inhibition [23]: 1%
inhibition [24]: 6%
inhibition [25]: 0%
inhibition [26]: 10%
inhibition [27]: 2%
inhibition [28]: 0%
inhibition [29]: 8%
inhibition [30]: 0%
inhibition [31]: 6%
inhibition [32]: 0%
inhibition [33]: 0%
inhibition [34]: 0%
inhibition [35]: 0%
inhibition [36]: 5%
inhibition [37]: 0%
inhibition [38]: 0%
inhibition [39]: 0%
inhibition [40]: 0%
inhibition [41]: 4%
inhibition [42]: 25%
inhibition [43]: 24%
inhibition [44]: 1%
